Active and inactive are the calls of the source. The rule behind the calls is not given here.
Columns and labels:
[1] = system: DU-145; assay: Antiproliferative activity against human DU145 cells incubated for 72 hrs by MTT assay; assay type: functional, cell-based; conditions: DU-145, 72 h
[2] = system: A549; assay: Antiproliferative activity against human A549 cells incubated for 72 hrs by MTT assay; assay type: functional, cell-based; conditions: A549, 72 h
[3] = system: MCF7; assay: Antiproliferative activity against human MCF7 cells incubated for 72 hrs by MTT assay; assay type: functional, cell-based; conditions: MCF7, 72 h
[4] = system: SH-SY5Y; assay: Antiproliferative activity against human SH-SY5Y cells incubated for 72 hrs by MTT assay; assay type: functional, cell-based
[5] = system: HepG2; assay: Antiproliferative activity against human HepG2 cells incubated for 72 hrs by MTT assay; assay type: functional, cell-based; conditions: HepG2, 72 h
[6] = Cytotoxicity against human CCC-HPF1 cells assessed as decrease in cell viability incubated for 72 hrs by MTT assay; assay type: cell-based; conditions: CCC-HPF-1, 72 h
[7] = system: HepG2; assay: Induction of apoptosis in human HepG2 cells assessed as necrotic cells at 0.5 times IC50 incubated for 48 hrs by Annexin V-FITC and PI staining based flow cytometric analysis (reference value: 1.36%); assay type: functional
[8] = system: HepG2; assay: Induction of apoptosis in human HepG2 cells assessed as necrotic cells at 2 times IC50 incubated for 48 hrs by Annexin V-FITC and PI staining based flow cytometric analysis (reference value: 1.36%); assay type: functional
[9] = system: HepG2; assay: Disruption of mitochondrial membrane potential in human HepG2 cells assessed as cell shriveled at 1.5 uM to 5 uM incubated for 48 hrs by JC-1 dye based LSCM analysis; assay type: functional
[10] = system: HepG2; assay: Induction of ROS generation in human HepG2 cells assessed as increase in green fluorescence incubated for 48 hrs by DCFH-DA staining based LSCM method; assay type: functional, cell-based
[11] = system: HepG2; assay: Induction of apoptosis in human HepG2 cells assessed as viable cells at IC50 incubated for 48 hrs by Annexin V-FITC and PI staining based flow cytometric analysis (reference value: 93.4%); assay type: functional
[12] = system: HepG2; assay: Induction of apoptosis in human HepG2 cells assessed as cell detachment at 2 to 8 uM incubated for 48 hrs by optical microscopic method; assay type: functional, cell-based
[13] = system: HepG2; assay: Induction of apoptosis in human HepG2 cells assessed as decrease in cell number at 2 to 8 uM incubated for 48 hrs by optical microscopic method; assay type: functional, cell-based
[14] = system: HepG2; assay: Induction of apoptosis in human HepG2 cells assessed as cell shrinkage at 2 to 8 uM incubated for 48 hrs by optical microscopic method; assay type: functional, cell-based
[15] = system: HepG2; assay: Induction of apoptosis in human HepG2 cells assessed as late apoptotic cells at IC50 incubated for 48 hrs by Annexin V-FITC and PI staining based flow cytometric analysis (reference value: 3.47%); assay type: functional
[16] = system: HepG2; assay: Antitumor activity against human HepG2 cells xenografted in nude mouse assessed as inhibition of tumor at 40 mg/kg administrated daily for 30 days post implantation by vernier caliper analysis relative to control; assay type: functional; conditions: HepG2, 720 h
[17] = Toxicity in nude mouse xenografted with human HepG2 cells assessed as change in body weight at 40 mg/kg administrated daily for 50 days post implantation; assay type: organism-based; conditions: in vivo, 1200 h
[18] = system: HepG2; assay: Induction of apoptosis in human HepG2 cells assessed as necrotic cells at IC50 incubated for 48 hrs by Annexin V-FITC and PI staining based flow cytometric analysis (reference value: 1.36%); assay type: functional
[19] = system: HepG2; assay: Induction of apoptosis in human HepG2 cells assessed as early apoptotic cells at 2 times IC50 incubated for 48 hrs by Annexin V-FITC and PI staining based flow cytometric analysis (reference value: 1.75%); assay type: functional
[20] = system: HepG2; assay: Antitumor activity against human HepG2 cells xenografted in nude mouse assessed as inhibition of tumor growth administrated daily for 50 days post implantation by vernier caliper analysis; assay type: functional
[21] = system: HepG2; assay: Induction of apoptosis in human HepG2 cells assessed as viable cells at 0.5 times IC50 incubated for 48 hrs by Annexin V-FITC and PI staining based flow cytometric analysis (reference value: 93.4%); assay type: functional
[22] = system: HepG2; assay: Disruption of mitochondrial membrane potential in human HepG2 cells assessed as appearance of cell desquamation at 1.5 uM to 5 uM incubated for 48 hrs by JC-1 dye based LSCM analysis; assay type: functional
[23] = system: HepG2; assay: Induction of apoptosis in human HepG2 cells assessed as late apoptotic cells at 2 times IC50 incubated for 48 hrs by Annexin V-FITC and PI staining based flow cytometric analysis (reference value: 3.47%); assay type: functional
[24] = system: HepG2; assay: Induction of apoptosis in human HepG2 cells assessed as early apoptotic cells at IC50 incubated for 48 hrs by Annexin V-FITC and PI staining based flow cytometric analysis (reference value: 1.75%); assay type: functional
[25] = biological target: Epidermal growth factor receptor (Homo sapiens, UniProt P00533); assay: Inhibition of EGFR (unknown origin) using TK substrate incubated for 60 mins by FRET assay
Sequence of Epidermal growth factor receptor (P00533 whole entry): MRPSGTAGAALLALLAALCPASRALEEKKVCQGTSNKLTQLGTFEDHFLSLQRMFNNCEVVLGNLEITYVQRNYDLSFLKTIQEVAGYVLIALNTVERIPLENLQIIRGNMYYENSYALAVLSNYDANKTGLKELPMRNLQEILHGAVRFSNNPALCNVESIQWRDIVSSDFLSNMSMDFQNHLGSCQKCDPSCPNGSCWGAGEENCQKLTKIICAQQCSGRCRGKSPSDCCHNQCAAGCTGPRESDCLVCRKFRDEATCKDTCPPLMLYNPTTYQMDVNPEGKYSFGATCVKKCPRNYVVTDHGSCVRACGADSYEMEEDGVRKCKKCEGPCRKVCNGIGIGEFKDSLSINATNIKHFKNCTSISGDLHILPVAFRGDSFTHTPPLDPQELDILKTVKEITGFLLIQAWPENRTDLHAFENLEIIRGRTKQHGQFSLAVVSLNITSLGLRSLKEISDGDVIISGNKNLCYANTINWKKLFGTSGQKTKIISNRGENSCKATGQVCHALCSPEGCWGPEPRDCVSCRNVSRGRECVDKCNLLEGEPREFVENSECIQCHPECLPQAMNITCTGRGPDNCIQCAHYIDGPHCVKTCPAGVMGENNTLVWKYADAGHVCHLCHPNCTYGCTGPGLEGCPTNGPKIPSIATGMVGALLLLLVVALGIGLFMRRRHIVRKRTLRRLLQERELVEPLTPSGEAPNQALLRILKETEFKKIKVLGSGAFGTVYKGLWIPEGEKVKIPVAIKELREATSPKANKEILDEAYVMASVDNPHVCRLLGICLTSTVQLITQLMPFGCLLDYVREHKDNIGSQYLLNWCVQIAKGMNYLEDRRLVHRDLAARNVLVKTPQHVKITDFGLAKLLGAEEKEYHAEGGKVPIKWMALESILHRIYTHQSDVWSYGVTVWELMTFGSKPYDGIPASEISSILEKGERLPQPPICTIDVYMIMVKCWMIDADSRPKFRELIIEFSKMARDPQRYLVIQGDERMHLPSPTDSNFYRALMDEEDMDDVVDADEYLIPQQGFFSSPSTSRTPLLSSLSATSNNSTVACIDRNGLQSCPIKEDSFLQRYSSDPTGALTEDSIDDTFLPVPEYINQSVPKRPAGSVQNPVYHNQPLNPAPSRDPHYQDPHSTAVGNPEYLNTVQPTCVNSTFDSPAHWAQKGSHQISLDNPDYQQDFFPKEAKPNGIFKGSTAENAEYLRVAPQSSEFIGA

[26] = system: HepG2; assay: Disruption of mitochondrial membrane potential in human HepG2 cells at 1.5 uM to 5 uM incubated for 48 hrs by JC-1 dye based fluorescence spectrophotometric analysis; assay type: functional, cell-based
[27] = biological target: Platelet-derived growth factor receptor beta (Homo sapiens, UniProt P09619); assay: Inhibition of PDGFRbeta (unknown origin) using TK substrate incubated for 60 mins by FRET assay
Sequence of Platelet-derived growth factor receptor beta (P09619 whole entry): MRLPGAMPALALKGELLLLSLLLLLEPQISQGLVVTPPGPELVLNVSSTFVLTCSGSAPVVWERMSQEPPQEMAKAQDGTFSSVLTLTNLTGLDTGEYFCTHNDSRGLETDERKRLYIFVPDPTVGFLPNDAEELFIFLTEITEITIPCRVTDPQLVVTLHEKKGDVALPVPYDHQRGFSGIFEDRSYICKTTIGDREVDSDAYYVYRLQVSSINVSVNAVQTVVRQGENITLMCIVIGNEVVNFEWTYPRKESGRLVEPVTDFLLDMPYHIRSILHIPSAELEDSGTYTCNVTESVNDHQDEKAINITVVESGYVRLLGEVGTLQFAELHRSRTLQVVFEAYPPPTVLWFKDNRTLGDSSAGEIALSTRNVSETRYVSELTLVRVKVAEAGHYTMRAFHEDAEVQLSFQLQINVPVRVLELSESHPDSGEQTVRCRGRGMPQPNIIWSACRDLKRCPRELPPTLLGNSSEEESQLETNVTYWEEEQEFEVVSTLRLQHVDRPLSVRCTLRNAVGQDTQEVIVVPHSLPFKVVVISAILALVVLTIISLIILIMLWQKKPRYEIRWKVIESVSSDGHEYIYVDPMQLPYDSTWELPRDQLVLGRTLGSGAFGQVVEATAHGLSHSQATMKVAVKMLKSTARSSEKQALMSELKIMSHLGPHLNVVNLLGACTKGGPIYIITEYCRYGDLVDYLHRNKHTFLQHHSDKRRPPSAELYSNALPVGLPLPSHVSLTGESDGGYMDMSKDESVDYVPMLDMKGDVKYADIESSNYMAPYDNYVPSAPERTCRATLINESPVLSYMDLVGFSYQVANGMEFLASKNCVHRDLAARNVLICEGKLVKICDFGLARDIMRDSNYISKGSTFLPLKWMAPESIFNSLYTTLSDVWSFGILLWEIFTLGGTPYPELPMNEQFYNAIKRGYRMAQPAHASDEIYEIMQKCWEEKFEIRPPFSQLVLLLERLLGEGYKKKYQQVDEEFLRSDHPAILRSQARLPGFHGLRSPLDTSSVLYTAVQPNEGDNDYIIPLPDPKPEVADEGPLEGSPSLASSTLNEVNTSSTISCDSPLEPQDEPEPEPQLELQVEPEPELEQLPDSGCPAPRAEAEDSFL

[28] = biological target: Vascular endothelial growth factor receptor 2 (Homo sapiens, UniProt P35968); assay: Inhibition of VEGFR2 (unknown origin) using TK substrate incubated for 60 mins by FRET assay
Sequence of Vascular endothelial growth factor receptor 2 (P35968 whole entry): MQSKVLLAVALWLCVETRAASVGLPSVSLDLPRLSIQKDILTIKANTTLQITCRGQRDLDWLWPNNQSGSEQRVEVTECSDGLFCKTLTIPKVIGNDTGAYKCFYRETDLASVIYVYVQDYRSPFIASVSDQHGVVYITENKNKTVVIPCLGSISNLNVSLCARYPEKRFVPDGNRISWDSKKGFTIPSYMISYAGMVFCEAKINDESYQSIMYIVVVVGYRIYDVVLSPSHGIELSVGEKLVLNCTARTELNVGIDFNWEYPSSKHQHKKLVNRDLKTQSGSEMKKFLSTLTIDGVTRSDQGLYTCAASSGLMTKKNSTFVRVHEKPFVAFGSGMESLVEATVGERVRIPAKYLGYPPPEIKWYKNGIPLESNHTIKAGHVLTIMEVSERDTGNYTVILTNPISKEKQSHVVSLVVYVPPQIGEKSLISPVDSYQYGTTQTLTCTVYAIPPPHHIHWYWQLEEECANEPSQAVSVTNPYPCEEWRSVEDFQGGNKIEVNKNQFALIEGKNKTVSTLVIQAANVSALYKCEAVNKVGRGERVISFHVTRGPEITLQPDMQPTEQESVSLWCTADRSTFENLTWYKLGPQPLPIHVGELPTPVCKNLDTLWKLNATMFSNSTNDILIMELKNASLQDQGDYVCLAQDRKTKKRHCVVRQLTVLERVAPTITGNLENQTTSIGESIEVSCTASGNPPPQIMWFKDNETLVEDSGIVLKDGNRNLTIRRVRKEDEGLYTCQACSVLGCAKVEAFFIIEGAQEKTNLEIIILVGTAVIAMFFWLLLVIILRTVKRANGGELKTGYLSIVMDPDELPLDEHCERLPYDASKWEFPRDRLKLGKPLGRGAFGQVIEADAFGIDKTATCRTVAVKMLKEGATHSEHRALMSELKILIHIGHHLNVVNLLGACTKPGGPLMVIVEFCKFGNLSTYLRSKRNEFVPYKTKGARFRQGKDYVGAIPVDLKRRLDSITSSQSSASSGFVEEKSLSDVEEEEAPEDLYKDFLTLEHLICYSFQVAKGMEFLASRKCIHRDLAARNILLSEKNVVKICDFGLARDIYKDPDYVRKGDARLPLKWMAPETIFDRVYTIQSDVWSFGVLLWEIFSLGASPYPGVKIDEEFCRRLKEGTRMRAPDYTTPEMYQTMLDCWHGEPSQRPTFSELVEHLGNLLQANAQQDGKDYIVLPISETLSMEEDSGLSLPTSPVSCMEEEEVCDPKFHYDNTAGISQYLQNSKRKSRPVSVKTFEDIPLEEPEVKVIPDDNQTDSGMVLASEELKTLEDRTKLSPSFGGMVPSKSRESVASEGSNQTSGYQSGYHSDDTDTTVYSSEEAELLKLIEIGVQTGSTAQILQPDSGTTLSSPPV

[29] = system: HepG2; assay: Induction of apoptosis in human HepG2 cells assessed as viable cells at 2 times IC50 incubated for 48 hrs by Annexin V-FITC and PI staining based flow cytometric analysis (reference value: 93.4%); assay type: functional
[30] = system: HepG2; assay: Induction of apoptosis in human HepG2 cells assessed as late apoptotic cells at 0.5 times IC50 incubated for 48 hrs by Annexin V-FITC and PI staining based flow cytometric analysis (reference value: 3.47%); assay type: functional
[31] = system: HepG2; assay: Antitumor activity against human HepG2 cells xenografted in nude mouse assessed as suppression of tumor volume at 20 to 40 mg/kg administrated daily for 50 days post implantation by vernier caliper analysis; assay type: functional, organism-based
[32] = Toxicity in nude mouse xenografted with human HepG2 cells assessed as change in body weight at 20 to 30 mg/kg administrated daily for 50 days post implantation; assay type: organism-based; conditions: in vivo, 1200 h
[33] = system: HepG2; assay: Induction of apoptosis in human HepG2 cells assessed as early apoptotic cells at 0.5 times IC50 incubated for 48 hrs by Annexin V-FITC and PI staining based flow cytometric analysis (reference value: 1.75%); assay type: functional
[34] = Toxicity in nude mouse xenografted with human HepG2 cells assessed as change in body weight at 20 mg/kg administrated daily for 50 days post implantation; assay type: organism-based; conditions: in vivo, 1200 h

With c1ccc(COc2ccc(Nc3ncnc4cc5c(cc34)OCCOCCOCCO5)cc2)cc1 the IC50 [1] was > 100 µM, the IC50 [2] was > 100 µM and the IC50 [3] was 8.34 µM. For the same compound, the IC50 [4] was 23.9 µM, the IC50 [5] was > 100 µM and the IC50 [6] was > 100 µM.

For FC(F)(F)c1ccc(COc2ccccc2Nc2ncnc3cc4c(cc23)OCCOCCOCCO4)cc1, the IC50 [1] was > 100 µM, the IC50 [2] was > 100 µM and the IC50 [3] was > 100 µM. For the same compound, the IC50 [4] was > 100 µM and the IC50 [5] was > 100 µM.

For c1ccc(COc2ccccc2Nc2ncnc3cc4c(cc23)OCCOCCOCCO4)cc1, the IC50 [1] was 13.9 µM, the IC50 [2] was 6.94 µM and the IC50 [3] was 63.3 µM. The IC50 [4] was 98.4 µM, the IC50 [5] was 37.3 µM and the IC50 [6] was > 100 µM.

With O=[N+]([O-])c1ccc(COc2ccccc2Nc2ncnc3cc4c(cc23)OCCOCCO4)cc1 the IC50 [1] was 85.6 µM, the IC50 [2] was 28.4 µM and the IC50 [3] was > 100 µM. The IC50 [4] was > 100 µM and the IC50 [5] was 50.2 µM.

For FC(F)(F)c1ccc(COc2ccc(Nc3ncnc4cc5c(cc34)OCCOCCOCCOCCO5)cc2)cc1, the Activity [7] was 1.01%, the Activity [8] was 1.35% and the Activity [9] was “Active”. For the same compound, the Activity [10] was “Dose-dependent effect”, the Activity [11] was 35% and the IC50 [1] was 8.8 µM. The Activity [12] was “Active”, the IC50 [2] was 8.56 µM and the IC50 [3] was 10 µM. For the same compound, the IC50 [4] was 2.14 µM, the Activity [13] was “Active” and the Activity [14] was “Active”. For the same compound, the Activity [15] was 52.5%, the inhibition in vivo at 40 mg/kg [16] was 100% and the Activity [17] was “Toxic”. For the same compound, the Activity [18] was 3.61%, the Activity [19] was 8.27% and the inhibition [20] was “Dose-dependent effect”. It also gave an IC50 [5] of 3.34 µM, an IC50 [6] of 38.2 µM and an Activity [21] of 71.3%. The Activity [22] was “Active”, the Activity [23] was 61.3% and the Activity [24] was 8.89%. The IC50 [25] was 0.385 µM, the Activity [26] was “Active” and the IC50 [27] was 0.674 µM. The IC50 [28] was 0.0464 µM, the Activity [29] was 29.1% and the Activity [30] was 24%. For the same compound, the Activity [31] was “Active”, the Activity [32] was “Non-Toxic” and the Activity [33] was 3.72%.

Work on FC(F)(F)c1ccc(COc2cccc(Nc3ncnc4cc5c(cc34)OCCOCCOCCOCCO5)c2)cc1 yielded an IC50 [1] of 26.9 µM, an IC50 [2] of 8.52 µM and an IC50 [3] of 8.48 µM. It also gave an IC50 [4] of 8.56 µM, an IC50 [5] of 5.7 µM and an IC50 [6] of 45.2 µM.

For c1ccc(COc2cccc(Nc3ncnc4cc5c(cc34)OCCOCCOCCO5)c2)cc1, the IC50 [1] was > 100 µM, the IC50 [2] was > 100 µM and the IC50 [3] was > 100 µM. The IC50 [4] was 22.8 µM and the IC50 [5] was > 100 µM.

For O=[N+]([O-])c1ccc(COc2cccc(Nc3ncnc4cc5c(cc34)OCCOCCO5)c2)cc1, the IC50 [1] was > 100 µM, the IC50 [2] was 15.5 µM and the IC50 [3] was 42.4 µM. The IC50 [4] was 36.6 µM and the IC50 [5] was 65.3 µM.

In the case of CNC(=O)c1cc(Oc2ccc(NC(=O)Nc3ccc(Cl)c(C(F)(F)F)c3)cc2)ccn1 [SORAFENIB], the Activity [34] is reported as “Non-Toxic”, the IC50 [1] is reported as 83.7 µM and the IC50 [2] is reported as 25.7 µM. For the same compound, the IC50 [3] was 38.2 µM, the IC50 [4] was > 100 µM and the inhibition in vivo at 40 mg/kg [16] was 100%. The Activity [17] was “Toxic” and the IC50 [5] was 7.84 µM.

In the case of FC(F)(F)c1ccc(COc2ccccc2Nc2ncnc3cc4c(cc23)OCCOCCO4)cc1, the IC50 [1] is reported as > 100 µM, the IC50 [2] is reported as > 100 µM and the IC50 [3] is reported as > 100 µM. The IC50 [4] was > 100 µM and the IC50 [5] was > 100 µM.

With O=[N+]([O-])c1ccc(COc2ccc(Nc3ncnc4cc5c(cc34)OCCOCCO5)cc2)cc1 the IC50 [1] was > 100 µM, the IC50 [2] was 8.62 µM and the IC50 [3] was 39.7 µM. For the same compound, the IC50 [4] was 55.2 µM, the IC50 [5] was > 100 µM and the IC50 [6] was 47.1 µM.

With FC(F)(F)c1ccc(COc2ccc(Nc3ncnc4cc5c(cc34)OCCOCCOCCO5)cc2)cc1 the IC50 [1] was > 100 µM, the IC50 [2] was 30.7 µM and the IC50 [3] was 28.5 µM. The IC50 [4] was > 100 µM and the IC50 [5] was > 100 µM.
